From ChEMBL document CHEMBL4609991, “Discovery of N-ethylpyridine-2-carboxamide derivatives as a novel scaffold for orally active γ-secretase modulators” (Bioorg Med Chem, 2020)
The source made the active and inactive calls. The rule behind the calls is not given here.

Columns and labels:
in vitro = settings: CD1, mouse, liver microsomes
Gamma-secretase = assay: Modulatory activity of gamma secretase in human SKNBE2 cells assessed as decrease in Abeta42 levels incubated for 6 hrs by sandwich ELISA; assay type: cell-based
[1] = Drug concentration in ddY mouse brain at 30 mg/kg, po measured after 3 hrs by LC-MS/MS analysis; assay type: ADME, organism-based; settings: read-out: Ct
[2] = […], ratio of drug concentration in brain to plasma at steady state in ddY mouse at 30 mg/kg, po by LC-MS/MS analysis; assay type: ADME, organism-based
[3] = Drug concentration in ddY mouse plasma at 30 mg/kg, po measured after 3 hrs by LC-MS/MS analysis; assay type: ADME, organism-based
Mus musculus [4] = assay: In vivo modulatory activity of gamma secretase in ddY mouse assessed as reduction in Abeta42 levels in brain at 30 mg/kg, po measured after 3 hrs by ELISA relative to control; assay type: functional
[5] = Ratio of drug concentration in ddY mouse brain to IC50 for gamma secretase in human SKNBE2 cells assessed as decrease in Abeta42 levels incubated for 6 hrs by sandwich ELISA; assay type: ADME, cell-based
CYP3A4 [6] = biological target: T1, CYP3A4 (Homo sapiens, UniProt P08684); assay: Inhibition of CYP3A4 in human liver microsomes assessed as residual activity at 5 uM using midazolam as substrate measured after 20 mins by LC-MS/MS analysis relative to control; assay type: ADME; settings: probe midazolam, read-out: Activity
T1 sequence (P08684 whole entry): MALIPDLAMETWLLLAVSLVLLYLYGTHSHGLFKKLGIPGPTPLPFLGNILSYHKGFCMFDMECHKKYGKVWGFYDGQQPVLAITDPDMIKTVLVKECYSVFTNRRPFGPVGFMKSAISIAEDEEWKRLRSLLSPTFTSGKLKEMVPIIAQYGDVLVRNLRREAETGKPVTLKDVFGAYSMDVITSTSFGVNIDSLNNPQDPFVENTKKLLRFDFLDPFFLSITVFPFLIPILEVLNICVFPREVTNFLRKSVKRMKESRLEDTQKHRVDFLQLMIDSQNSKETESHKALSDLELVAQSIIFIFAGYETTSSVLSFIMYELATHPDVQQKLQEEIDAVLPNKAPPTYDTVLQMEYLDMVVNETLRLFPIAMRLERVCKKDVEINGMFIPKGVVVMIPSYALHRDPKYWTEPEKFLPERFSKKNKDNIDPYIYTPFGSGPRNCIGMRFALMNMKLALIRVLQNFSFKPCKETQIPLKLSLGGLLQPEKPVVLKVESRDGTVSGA

[7] = biological target: Gamma-secretase (Homo sapiens) (UniProt Q96BI3+Q9NZ42+Q8WW43+P49768+Q92542+P49810); assay: Inhibition of gamma-secretase in human H4 cells overexpressing human wild-type APP assessed as beta-CTF level incubated for 24 hrs by ELISA; assay type: cell-based
CYP3A4 [8] = biological target: T1, CYP3A4; assay: Inhibition of CYP3A4 in human liver microsomes assessed as residual activity at 5 uM using midazolam as substrate preincubated with enzyme for 30 mins followed by incubation with substrate for 20 mins by LC-MS/MS analysis relative to control; assay type: ADME; settings: probe midazolam, read-out: Activity
Mus musculus [9] = assay: In vivo modulatory activity of gamma secretase in ddY mouse assessed as reduction in Abeta42 levels in plasma at 30 mg/kg, po measured after 3 hrs by ELISA relative to control; assay type: functional

microsomal CLint at 0.75 h, 0.2 µM (in vitro) [µL/min/mg]	IC50 (Gamma-secretase) [µM]	Compound	other results
75.7		CCNC(=O)c1ccc(-c2c(CO)nc3c(OCc4ccccc4)cccn23)cn1	
295	0.24	CCNC(=O)c1ccc(-c2c(C)nc3c(OCc4cccc(F)c4)cccn23)cn1	
> 1000	0.17	CCNC(=O)c1ccc(-c2c(C)nc3c(OCc4c(C)cc(C)cc4C)cccn23)cn1	
49.9		CCNC(=O)c1ccc(-c2c(C)nc3c(OCc4ccc(-n5cncn5)cc4)cccn23)cn1	
367	0.062	CCNC(=O)c1ccc(-c2c(C)nc3c(OCc4cccc(-c5ccccc5)c4)cccn23)cn1.Cl	concentration at 3 h [1]: 0.77 µM; Kp [2]: 0.12; concentration at 3 h [3]: 6.6 µM; inhibition in vivo at 30 mg/kg (Mus musculus [4]): 6%; Ratio [5]: 12 nmol/g/uM
500	> 50	CCNC(=O)c1ccc(-c2c(C)nc3c(OCc4ccccc4)cccn23)cc1F	
77.9	> 10	CCNC(=O)c1ccc(-c2c(C)nc3c(OCc4cccc(C(=O)N(C)C)c4)cccn23)cn1	
324	0.58	CCNC(=O)c1ccc(-c2c(C)nc3c(OCc4ccccc4)cccn23)cn1	
> 1000	0.39	CCNC(=O)c1ccc(-c2c(C)nc3c(OCc4ccccc4-c4ccccc4)cccn23)cn1	
84.7	0.091	CCNC(=O)c1ccc(-c2c(C)nc3c(OCc4ccc(-c5ccccc5)cc4)cccn23)cn1.Cl	activity at 20 min, 5 µM (CYP3A4 [6]): 101%; concentration at 3 h [1]: 4.6 µM; inhibition [7]: inactive; Kp [2]: 0.45; concentration at 3 h [3]: 10 µM; inhibition in vivo at 30 mg/kg (Mus musculus [4]): 36%; Ratio [5]: 51 nmol/g/uM; activity at 20 min, 5 µM (CYP3A4 [8]): 83%; inhibition in vivo at 30 mg/kg (Mus musculus [9]): 66%
228	0.15	CCNC(=O)c1ccc(-c2c(C)nc3c(OCc4ccccc4F)cccn23)cn1.Cl	concentration at 3 h [1]: 0.75 µM; Kp [2]: 0.27; concentration at 3 h [3]: 2.7 µM; inhibition in vivo at 30 mg/kg (Mus musculus [4]): 6%; Ratio [5]: 5 nmol/g/uM; inhibition in vivo at 30 mg/kg (Mus musculus [9]): 16%
	> 50	CCN1CCc2cc(-c3c(C)nc4c(OCc5ccccc5)cccn34)ccc2C1=O	
438	0.37	CCNC(=O)c1ccc(-c2c(C)nc3c(OCc4ccc(C)cc4)cccn23)cn1	
350	6.2	CCNC(=O)c1ccc(-c2c(COC)nc3c(OCc4ccccc4)cccn23)cn1	
> 1000	> 2	CCN1C(=O)c2ccc(-c3c(C)nc4c(OCc5ccccc5)cccn34)cc2C1(C)C	
		CCN1Cc2cc(-c3c(C)nc4c(OCc5ccccc5)cccn34)ccc2C1=O.Cl	Kp [2]: 0.72; inhibition in vivo at 30 mg/kg (Mus musculus [4]): 2%; Ratio [5]: 1.8 nmol/g/uM
> 1000	1.1	CCNC(=O)c1ccc(-c2c(C)nc3c(OCCc4ccccc4)cccn23)cn1	
652		CCNC(=O)c1ccc(-c2c(C)nc3c(OCc4ccc(C)cc4C)cccn23)cn1	
318		CCNC(=O)c1ccc(-c2c(C#N)nc3c(OCc4ccccc4)cccn23)cn1	
